Numbering of substitutions follows the chain as printed.
Experiments:
Test in all cases: differential scanning fluorimetry (thermal shift)
Type in all cases: binding
[1] = biological target: T1, hsHARS (human histidyl-tRNA synthetase, HARS) (Homo sapiens, UniProt P12081, V155G); settings: 1 μM protein, apo mutant TM 59.8 ± 0.7 °C
T1 construct: gene HARS1; hsHARS gene in pDest527, 6x-His tag, E. coli BL21 Codon Plus, Ni-NTA purified; dimeric protein
T1 sequence (P12081 1-509 V155G): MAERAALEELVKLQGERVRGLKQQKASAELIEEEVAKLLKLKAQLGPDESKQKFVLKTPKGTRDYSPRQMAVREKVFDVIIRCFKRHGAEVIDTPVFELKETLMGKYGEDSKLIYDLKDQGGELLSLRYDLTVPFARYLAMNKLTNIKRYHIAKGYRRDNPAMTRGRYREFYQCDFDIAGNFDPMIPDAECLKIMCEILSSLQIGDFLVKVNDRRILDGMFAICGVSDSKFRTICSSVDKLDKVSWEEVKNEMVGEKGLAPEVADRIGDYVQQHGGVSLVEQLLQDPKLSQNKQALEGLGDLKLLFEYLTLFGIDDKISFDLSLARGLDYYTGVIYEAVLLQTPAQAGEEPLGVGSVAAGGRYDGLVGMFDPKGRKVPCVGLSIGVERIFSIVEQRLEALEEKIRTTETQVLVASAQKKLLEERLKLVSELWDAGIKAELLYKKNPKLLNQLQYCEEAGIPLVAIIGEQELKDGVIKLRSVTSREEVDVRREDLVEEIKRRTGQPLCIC
Excerpt: (§1) differential scanning fluorimetry (thermal shift) on […]

[2] = biological target: T2, hsHARS (human histidyl-tRNA synthetase, HARS) (Homo sapiens, UniProt P12081, Y454S); settings: 1 μM protein, apo mutant TM 50 ± 1.8 °C
T2 construct: gene HARS1; hsHARS gene in pDest527, 6x-His tag, E. coli BL21 Codon Plus, Ni-NTA purified; dimeric protein
T2 sequence (P12081 1-509 Y454S): T1 sequence (P12081 1-509 V155G) with G155V, Y454S
Excerpt: as §1

[3] = biological target: T3, hsHARS (human histidyl-tRNA synthetase, HARS) (Homo sapiens, UniProt P12081, V133F); settings: 500 μM ATP, 1 μM protein; apo mutant TM 52 ± 1.2 °C
T3 construct: gene HARS1; hsHARS gene in pDest527, 6x-His tag, E. coli BL21 Codon Plus, Ni-NTA purified; dimeric protein
T3 sequence (P12081 1-509 V133F): T1 sequence (P12081 1-509 V155G) with V133F, G155V
Excerpt: differential scanning fluorimetry (thermal shift) on hsHARS (human histidyl-tRNA synthetase, HARS) | high ATP concentrations increase the thermal stability of HARS V133F to wild-type levels

Row | Structure (SMILES) | TM ([1]; 500 μM ATP) | TM ([2]; 500 μM ATP) | TM [3] | TM ([1]; 1 mM histidine) | TM ([2]; 1 mM histidine)
1 | Nc1ncnc2c1ncn2[C@@H]1O[C@H](COP(=O)(O)OP(=O)(O)OP(=O)(O)O)[C@@H](O)[C@H]1O [ATP] | all substrate supplementations restored wild-type like levels of protein stability | The addition of tRNA or ATP alone or in combination slightly increased stability | 63 ± 1.9 °C |  | 
2 | N[C@@H](Cc1cnc[nH]1)C(=O)O [histidine] |  |  |  | all substrate supplementations restored wild-type like levels of protein stability | 57.8 ± 0.8 °C

Source: paper PMC9941834, “Histidine supplementation can escalate or rescue HARS deficiency in a Charcot–Marie–Tooth disease model” (Human Molecular Genetics, 2022)
